From BindingDB's records for patent US9260439 (Pfizer, 2016) come the findings set out here.

The structures appear in SMILES notation. Bounds are passed on as bounds.

This assay addresses Phosphatidylinositol 3-kinase regulatory subunit alpha [Q431L,Q432E,D433V,Q434L,V435F,V436Q,K437G,E438P]/4,5-bisphosphate 3-kinase catalytic subunit alpha isoform (Homo sapiens, UniProt P42336). As to the kind of experiment: Biochemical Assay. The text has this: PI3KA_Act: Genes encoding for full length p110alpha and p85alpha nSH-iSH2=niSH2 (p85a aminoacids 322-600) subunits of PI3Kalpha complex were subcloned from existing constructs into pFASTBAC Dual vector (Life Technologies, Carlsbad, Calif.) using standard cloning procedures. Gene encoding p110alpha subunit was subcloned into polyhedrine promoter while gene encoding p85alpha niSH2 domains was subcloned into p10 promoter. Additionally, Human Rhinovirus 3C Protease (HRV 3C) site was introduced between nSH2 and iSH2, replacing aminoacids 431-438 of p85alpha with […] HRV 3C recognition sequence, using standard QuickChange mutagenesis protocol (Agilent Technologies, CA). Recombinant baculovirus was generated using Bac-to-Bac protocol (Life Technologies, Carlsbad, Calif.). The biochemical assays of kinase activity of full-length PI3Kalpha (full-length p110alpha/p85a) or truncated PI3Kalpha (p110alpha/iSH2 p85a) were conducted using a fluorescence polarization format similar to the procedure of Yuan J., et al., (2011) "PF-04691502, a Potent and Selective Oral Inhibitor of PI3K and mTOR Kinases with Antitumor Activity, Mol Cancer Ther. 10, 2189-2199.

In the case of `CC(=O)NCC(=O)N1CC(N2CCc3c(-c4cnc(N)nc4)nc(N4CCOC[C@@H]4C)nc32)C1` [US9260439, 201], the Ki (in general, a measure of affinity in units of concentration, obtained from inhibition or displacement) came out at 1.4 nM. As for `CC(C)(CO)C(=O)N1CC[C@](C)(N2CCc3c(-c4cnc(N)nc4)nc(N4CCOCC4)nc32)C1` [US9260439, 277], the figure is 0.034 nM; as for `C[C@]1(N2CCc3c(-c4cnc(N)nc4)nc(N4CCOCC4)nc32)CCN(C(=O)C2(F)CC2)C1` [US9260439, 331], under 0.018 nM. As for `C[C@]1(N2CCc3c(-c4cnc(N)nc4)nc(N4CCOCC4)nc32)CCN(C(=O)C2(O)CC2)C1` [US9260439, 338], the figure is 0.071 nM; as for `C[C@]1(N2CCc3c(-c4cnc(N)nc4)nc(N4CCOCC4)nc32)CCN(C(=O)C2(CO)CC2)C1` [US9260439, 339], 0.08 nM.
